{
  "source": "patent US12138398B2",
  "about": "“Methods and devices for providing a stimulus to a subject to induce gamma oscillations” (Massachusetts Institute of Technology, priority 2015, dated 2024)",
  "key": {"AD patients": {"test_system": "AD patients", "conditions": "cited from earlier work"}, "[1]": {"test_system": "organotypic hippocampal slices prepared from transgenic (Tg) mice overexpressing APP", "conditions": "cited from earlier work"}, "[2]": {"test_system": "Aβ1-40 and Aβ1-42 levels in 5×FAD visual cortex", "assay": "Aβ ELISA of visual cortex after one hour 40-Hz light flicker with picrotoxin pretreatment", "type": "in vivo, mouse", "from_the_text": "FIGS. 47A and 47B are bar graphs depicting changes in baseline levels of Aβ1-40 and Aβ1-42, respectively, in 5×FAD visual cortex in dark, light, 40-Hz flicker, 20-Hz flicker, 80-Hz flicker, 40-Hz flicker with picrotoxin (PTX) and Random flicker conditions in accordance with some embodiments (n=12 mice per group for dark; n=6 mice per group for light, 40-Hz flicker, 20-Hz flicker, 80-Hz flicker, and PTX; n=4 mice per group for Random flicker; “n.s.” indicates not significant, one asterisk indicates p<0.05, and two asterisks indicate p<0.01 by one-way ANOVA). FIGS. 47 and 47B show mean and SEM. Circles superimposed on bars in the bar graphs indicate individual data points in each group. Following one hour after light exposure, it was observed that Aβ1-40 levels in visual cortex were reduced by 57.96% and Aβ1-42 levels by 57.97% compared to the dark condition (as measured by Aβ ELISA, see, e.g., FIGS. 47A and 47B, p<0.05 by one-way ANOVA, n=6 mice per group). Compared to light controls, amyloid levels were reduced by 62.47% (Aβ1-40) and 68.55% (Aβ1-42) following one hour of 40-Hz flicker (as measured by Aβ ELISA, see, e.g., FIG. 4′7, p<0.05 by one-way ANOVA, n=6 mice per group). […]\nFifteen minutes prior to the experiment 5×FAD mice were treated with saline (Control) or picrotoxin (0.18 mg/kg). For molecular and biochemical analyses mice were then placed in a dark chamber illuminated by an LED bulb and exposed to one of five stimulation conditions: dark, light, 20-Hz flicker, 40-Hz flicker, or 80-Hz flicker (12.5 ms light on, 12.5 ms light off) for one hour (see, e.g., FIG. 43A). For electrophysiological recordings each animal received dark, light, 40-Hz flicker, or random (light pulses were delivered with a random interval determined by a Poisson process with an average interval of 40 Hz) stimulation conditions interleaved in 10 s blocks during recordings. […]"}, "[3]": {"conditions": "5×FAD visual cortex (VC), 40 Hz flicker one hour + PTX (0.18 mg/kg pretreatment), ELISA dilution 1:2, individual mice"}},
  "note": "Several values for one entry are separate records, joined by “and”; a condition that tells them apart may be missing. Equal entries are not always repeated. Where two headings read alike, the source gives them in different places.",
  "data": [
    {"compound": "COc1cc2c(cc1OC)C(=O)C(CC1CCN(Cc3ccccc3)CC1)C2", "note": "(stereo not drawn) [donepezil]", "values": [
      {"measurement": "clinical outcome on cognition", "setting": "AD patients; human, in vivo", "result": "only mild cognitive benefits"}
    ]},
    {"compound": "CCN(C)C(=O)Oc1cccc([C@H](C)N(C)C)c1", "note": "[rivastigmine]", "values": [
      {"measurement": "clinical outcome on cognition", "setting": "AD patients; AD subjects", "result": "only mild cognitive benefits"}
    ]},
    {"compound": "CC(C)[C@H](O)C(=O)N[C@@H](C)C(=O)N[C@@H]1C(=O)N(C)CCc2ccccc21", "note": "[semagacestat]", "values": [
      {"measurement": "clinical outcome on cognition", "setting": "AD patients; AD subjects", "result": "worsening of cognitive deficits"}
    ]},
    {"compound": "NC1=N[C@H](O)[C@H]2[C@H]3O[C@]4(O)O[C@@H]([C@@H](O)[C@@]2(N1)[C@@H]4O)[C@]3(O)CO", "note": "[tetrodotoxin]", "values": [
      {"measurement": "Aβ levels", "setting": "[1]", "result": "decreased"},
      {"measurement": "neuronal activity", "setting": "[1]", "result": "decreased"}
    ]},
    {"compound": "picrotoxin [PTX]", "values": [
      {"measurement": "effects of 40-Hz flicker on Aβ levels after picrotoxin pretreatment", "setting": "[2]; 5×FAD mice, picrotoxin 0.18 mg/kg", "result": "completely abrogated"},
      {"measurement": "Average Aβ1-40 Concentration", "setting": "[2]; [3]", "result": "367.2 pg/ml and 431.4 pg/ml and 445.2 pg/ml (2×) and 392.4 pg/ml and 386.7 pg/ml"},
      {"measurement": "Aβ1-42 concentration", "setting": "[2]; [3]", "result": "396.6 pg/ml and 540.5 pg/ml and 532.7 pg/ml and 705.0 pg/ml and 104.5 pg/ml (2×)"},
      {"measurement": "neuronal activity", "setting": "[1]; organotypic hippocampal slices, APP Tg mice", "result": "increased neuronal activity"}
    ]}
  ]
}
